# Laboratory results taken from US12617747B2, “Cannabinoid analogs and methods for their preparation” (InMed Pharmaceuticals Inc., priority 2018, dated 2026).
# Biological target: T1, human CB2 receptor (Homo sapiens, UniProt P34972)
# T1 construct: HA; expressed in transfected cells
# Test: CB2 receptor agonist activity in AtT20 cells stably expressing HA-tagged human CB2 receptors
# Type: cell-based
# Settings: method of Udoh et al. 2019
# Description: The activity of 5-fluorocannabichromene (5F-CBC) was studied in AtT20 cells stably expressing HA-tagged human CB1 and CB2 receptors, as described by Udoh, et al. (“Cannabichromene is a cannabinoid CB2 receptor agonist.” British Journal of Pharmacology, 2019, doi: 10.1111/bph.14815).
# T1 sequence (P34972 whole entry): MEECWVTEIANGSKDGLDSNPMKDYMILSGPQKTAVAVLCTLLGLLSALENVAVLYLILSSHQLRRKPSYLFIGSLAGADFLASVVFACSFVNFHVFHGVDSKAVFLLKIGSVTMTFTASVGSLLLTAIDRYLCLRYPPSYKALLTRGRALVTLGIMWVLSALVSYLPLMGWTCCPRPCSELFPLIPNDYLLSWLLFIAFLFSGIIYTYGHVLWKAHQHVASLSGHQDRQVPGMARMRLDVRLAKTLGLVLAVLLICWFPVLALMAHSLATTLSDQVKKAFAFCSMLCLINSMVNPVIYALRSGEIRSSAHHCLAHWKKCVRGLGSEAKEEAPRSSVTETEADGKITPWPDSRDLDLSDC
smiles,measurement,value
"CC(C)=CCCC1(C)C=Cc2c(O)cc(CCCCCF)cc2O1 (stereo not shown) [5F-CBC, 7-(5-fluoropentyl)-2-methyl-2-(4-methyl-pent-3-enyl)-2H-chromen-5-ol]",EC50,2100 nM
